How the values were obtained:
Assay in all cases: Eurofins kinase selectivity profile against 380 other human recombinant kinases (Table S2)
Format in all cases: biochemical
[1] = molecular target: T1, 380 human recombinant protein kinases (Homo sapiens, UniProt Q96NX5); settings: CaMKIγ(h), read-out: Inhibition rate
T1 construct: purchased Eurofins (Celle Lévescault)
How it was run: (§1)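 Commercial selectivity screen of the test compound against a panel of 380 human recombinant protein kinases, run by an outside contractor at several compound concentrations to check whether its potency was specific for MK2.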

[2] = molecular target: T2, 380 human recombinant protein kinases (Homo sapiens, UniProt P06239); settings: Lck(h), read-out: Inhibition rate
T2 construct: purchased Eurofins (Celle Lévescault)
How it was run: as §1

[3] = molecular target: T3, 380 human recombinant protein kinases (Homo sapiens, UniProt Q8TF76); settings: Haspin(h), read-out: Inhibition rate
T3 construct: purchased Eurofins (Celle Lévescault)
T3 sequence (Q8TF76 1-798): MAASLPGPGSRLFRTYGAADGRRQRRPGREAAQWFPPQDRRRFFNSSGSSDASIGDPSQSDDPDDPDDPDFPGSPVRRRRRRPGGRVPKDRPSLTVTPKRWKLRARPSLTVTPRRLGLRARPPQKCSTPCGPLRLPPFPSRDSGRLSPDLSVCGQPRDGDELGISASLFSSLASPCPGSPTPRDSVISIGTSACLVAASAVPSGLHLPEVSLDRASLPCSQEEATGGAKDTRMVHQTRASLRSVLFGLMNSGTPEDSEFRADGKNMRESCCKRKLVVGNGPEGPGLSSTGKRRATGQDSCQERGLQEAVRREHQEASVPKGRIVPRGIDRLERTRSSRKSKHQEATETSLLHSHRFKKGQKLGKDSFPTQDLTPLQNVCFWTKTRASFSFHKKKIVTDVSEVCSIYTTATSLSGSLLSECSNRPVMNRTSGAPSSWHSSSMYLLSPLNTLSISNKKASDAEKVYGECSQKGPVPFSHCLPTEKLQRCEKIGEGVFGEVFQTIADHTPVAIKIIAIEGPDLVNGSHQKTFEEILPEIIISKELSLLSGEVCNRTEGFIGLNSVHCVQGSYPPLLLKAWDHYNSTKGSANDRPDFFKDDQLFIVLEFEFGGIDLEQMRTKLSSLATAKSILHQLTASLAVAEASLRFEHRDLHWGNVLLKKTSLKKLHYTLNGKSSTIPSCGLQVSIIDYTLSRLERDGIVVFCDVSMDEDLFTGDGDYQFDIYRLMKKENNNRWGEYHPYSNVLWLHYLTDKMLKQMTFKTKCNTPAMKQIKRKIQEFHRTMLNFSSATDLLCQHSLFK
How it was run: as §1

[4] = molecular target: T4, 380 human recombinant protein kinases (Homo sapiens, UniProt Q8IZX4); settings: TAF1L(h), read-out: Inhibition rate (%)
T4 construct: purchased Eurofins (Celle Lévescault)
How it was run: as §1

[5] = molecular target: T5, 380 human recombinant protein kinases (Homo sapiens, UniProt Q86Y07); settings: VRK2(h), read-out: Inhibition rate (%)
T5 construct: purchased Eurofins (Celle Lévescault)
How it was run: as §1

[6] = molecular target: T6, 380 human recombinant protein kinases (Homo sapiens, UniProt Q15831); settings: LKB1(h), read-out: Inhibition rate
T6 construct: purchased Eurofins (Celle Lévescault)
T6 sequence (Q15831 1-433): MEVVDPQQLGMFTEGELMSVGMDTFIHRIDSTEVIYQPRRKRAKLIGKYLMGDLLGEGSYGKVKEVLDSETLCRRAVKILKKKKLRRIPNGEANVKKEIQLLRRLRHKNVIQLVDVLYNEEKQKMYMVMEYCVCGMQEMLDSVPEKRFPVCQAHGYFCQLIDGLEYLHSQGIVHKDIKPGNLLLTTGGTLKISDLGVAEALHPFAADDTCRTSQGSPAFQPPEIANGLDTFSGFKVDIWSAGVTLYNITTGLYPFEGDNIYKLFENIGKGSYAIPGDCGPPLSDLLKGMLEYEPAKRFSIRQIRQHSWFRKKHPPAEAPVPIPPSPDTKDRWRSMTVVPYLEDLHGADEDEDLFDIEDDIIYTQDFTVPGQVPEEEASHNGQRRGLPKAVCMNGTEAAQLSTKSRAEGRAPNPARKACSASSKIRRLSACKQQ
How it was run: as §1

[7] = molecular target: T7, 380 human recombinant protein kinases (Homo sapiens, UniProt P08581); settings: Met(h), read-out: Inhibition rate
T7 construct: purchased Eurofins (Celle Lévescault)
How it was run: as §1

[8] = molecular target: T8, 380 human recombinant protein kinases (Homo sapiens, UniProt Q8N5S9); settings: CaMKK1(h), read-out: Inhibition rate
T8 construct: purchased Eurofins (Celle Lévescault)
How it was run: as §1

[9] = molecular target: T9, 380 human recombinant protein kinases (Homo sapiens, UniProt P14616); settings: IRR(h), read-out: Inhibition rate
T9 construct: purchased Eurofins (Celle Lévescault)
How it was run: as §1

[10] = molecular target: T10, 380 human recombinant protein kinases (Homo sapiens, UniProt Q86Z02); settings: HIPK1(h), read-out: Inhibition rate
T10 construct: purchased Eurofins (Celle Lévescault)
How it was run: as §1

[11] = molecular target: T11, 380 human recombinant protein kinases (Homo sapiens, UniProt P54756); settings: EphA5(h), read-out: Inhibition rate
T11 construct: purchased Eurofins (Celle Lévescault)
How it was run: as §1

[12] = molecular target: T12, 380 human recombinant protein kinases (Homo sapiens, UniProt Q13523); settings: PRP4(h), read-out: Inhibition rate
T12 construct: purchased Eurofins (Celle Lévescault)
How it was run: as §1

[13] = molecular target: T13, 380 human recombinant protein kinases (Homo sapiens, UniProt P08922); settings: Ros(h), read-out: Inhibition rate
T13 construct: purchased Eurofins (Celle Lévescault)
How it was run: as §1

T8 sequence (Q8N5S9 whole entry): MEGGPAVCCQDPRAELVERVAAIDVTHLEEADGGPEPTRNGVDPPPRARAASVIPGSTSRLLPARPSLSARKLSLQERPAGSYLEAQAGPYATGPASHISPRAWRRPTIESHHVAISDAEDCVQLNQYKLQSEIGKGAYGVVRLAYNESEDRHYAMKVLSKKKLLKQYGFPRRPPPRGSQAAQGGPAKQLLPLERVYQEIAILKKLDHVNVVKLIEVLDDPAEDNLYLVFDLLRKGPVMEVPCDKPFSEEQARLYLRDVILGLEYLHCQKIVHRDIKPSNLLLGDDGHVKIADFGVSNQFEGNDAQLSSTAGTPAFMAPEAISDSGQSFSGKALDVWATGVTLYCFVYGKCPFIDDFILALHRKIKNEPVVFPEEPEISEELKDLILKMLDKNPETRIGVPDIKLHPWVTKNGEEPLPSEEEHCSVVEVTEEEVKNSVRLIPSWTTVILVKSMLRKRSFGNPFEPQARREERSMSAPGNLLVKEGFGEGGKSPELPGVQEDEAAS
T1 sequence (Q96NX5 whole entry): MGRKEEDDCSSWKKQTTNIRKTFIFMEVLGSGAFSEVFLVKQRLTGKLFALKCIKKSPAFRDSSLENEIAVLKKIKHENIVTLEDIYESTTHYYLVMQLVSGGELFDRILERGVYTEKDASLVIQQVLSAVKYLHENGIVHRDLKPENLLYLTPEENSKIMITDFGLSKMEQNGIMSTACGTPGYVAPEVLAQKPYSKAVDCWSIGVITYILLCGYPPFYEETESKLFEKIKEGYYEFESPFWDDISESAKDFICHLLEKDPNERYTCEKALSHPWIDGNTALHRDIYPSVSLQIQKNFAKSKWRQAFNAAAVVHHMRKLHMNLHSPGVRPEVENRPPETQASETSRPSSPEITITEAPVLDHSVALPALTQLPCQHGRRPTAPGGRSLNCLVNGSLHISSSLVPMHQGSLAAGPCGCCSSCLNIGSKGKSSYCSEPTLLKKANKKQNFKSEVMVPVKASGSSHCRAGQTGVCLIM
T13 sequence (P08922 28-2347): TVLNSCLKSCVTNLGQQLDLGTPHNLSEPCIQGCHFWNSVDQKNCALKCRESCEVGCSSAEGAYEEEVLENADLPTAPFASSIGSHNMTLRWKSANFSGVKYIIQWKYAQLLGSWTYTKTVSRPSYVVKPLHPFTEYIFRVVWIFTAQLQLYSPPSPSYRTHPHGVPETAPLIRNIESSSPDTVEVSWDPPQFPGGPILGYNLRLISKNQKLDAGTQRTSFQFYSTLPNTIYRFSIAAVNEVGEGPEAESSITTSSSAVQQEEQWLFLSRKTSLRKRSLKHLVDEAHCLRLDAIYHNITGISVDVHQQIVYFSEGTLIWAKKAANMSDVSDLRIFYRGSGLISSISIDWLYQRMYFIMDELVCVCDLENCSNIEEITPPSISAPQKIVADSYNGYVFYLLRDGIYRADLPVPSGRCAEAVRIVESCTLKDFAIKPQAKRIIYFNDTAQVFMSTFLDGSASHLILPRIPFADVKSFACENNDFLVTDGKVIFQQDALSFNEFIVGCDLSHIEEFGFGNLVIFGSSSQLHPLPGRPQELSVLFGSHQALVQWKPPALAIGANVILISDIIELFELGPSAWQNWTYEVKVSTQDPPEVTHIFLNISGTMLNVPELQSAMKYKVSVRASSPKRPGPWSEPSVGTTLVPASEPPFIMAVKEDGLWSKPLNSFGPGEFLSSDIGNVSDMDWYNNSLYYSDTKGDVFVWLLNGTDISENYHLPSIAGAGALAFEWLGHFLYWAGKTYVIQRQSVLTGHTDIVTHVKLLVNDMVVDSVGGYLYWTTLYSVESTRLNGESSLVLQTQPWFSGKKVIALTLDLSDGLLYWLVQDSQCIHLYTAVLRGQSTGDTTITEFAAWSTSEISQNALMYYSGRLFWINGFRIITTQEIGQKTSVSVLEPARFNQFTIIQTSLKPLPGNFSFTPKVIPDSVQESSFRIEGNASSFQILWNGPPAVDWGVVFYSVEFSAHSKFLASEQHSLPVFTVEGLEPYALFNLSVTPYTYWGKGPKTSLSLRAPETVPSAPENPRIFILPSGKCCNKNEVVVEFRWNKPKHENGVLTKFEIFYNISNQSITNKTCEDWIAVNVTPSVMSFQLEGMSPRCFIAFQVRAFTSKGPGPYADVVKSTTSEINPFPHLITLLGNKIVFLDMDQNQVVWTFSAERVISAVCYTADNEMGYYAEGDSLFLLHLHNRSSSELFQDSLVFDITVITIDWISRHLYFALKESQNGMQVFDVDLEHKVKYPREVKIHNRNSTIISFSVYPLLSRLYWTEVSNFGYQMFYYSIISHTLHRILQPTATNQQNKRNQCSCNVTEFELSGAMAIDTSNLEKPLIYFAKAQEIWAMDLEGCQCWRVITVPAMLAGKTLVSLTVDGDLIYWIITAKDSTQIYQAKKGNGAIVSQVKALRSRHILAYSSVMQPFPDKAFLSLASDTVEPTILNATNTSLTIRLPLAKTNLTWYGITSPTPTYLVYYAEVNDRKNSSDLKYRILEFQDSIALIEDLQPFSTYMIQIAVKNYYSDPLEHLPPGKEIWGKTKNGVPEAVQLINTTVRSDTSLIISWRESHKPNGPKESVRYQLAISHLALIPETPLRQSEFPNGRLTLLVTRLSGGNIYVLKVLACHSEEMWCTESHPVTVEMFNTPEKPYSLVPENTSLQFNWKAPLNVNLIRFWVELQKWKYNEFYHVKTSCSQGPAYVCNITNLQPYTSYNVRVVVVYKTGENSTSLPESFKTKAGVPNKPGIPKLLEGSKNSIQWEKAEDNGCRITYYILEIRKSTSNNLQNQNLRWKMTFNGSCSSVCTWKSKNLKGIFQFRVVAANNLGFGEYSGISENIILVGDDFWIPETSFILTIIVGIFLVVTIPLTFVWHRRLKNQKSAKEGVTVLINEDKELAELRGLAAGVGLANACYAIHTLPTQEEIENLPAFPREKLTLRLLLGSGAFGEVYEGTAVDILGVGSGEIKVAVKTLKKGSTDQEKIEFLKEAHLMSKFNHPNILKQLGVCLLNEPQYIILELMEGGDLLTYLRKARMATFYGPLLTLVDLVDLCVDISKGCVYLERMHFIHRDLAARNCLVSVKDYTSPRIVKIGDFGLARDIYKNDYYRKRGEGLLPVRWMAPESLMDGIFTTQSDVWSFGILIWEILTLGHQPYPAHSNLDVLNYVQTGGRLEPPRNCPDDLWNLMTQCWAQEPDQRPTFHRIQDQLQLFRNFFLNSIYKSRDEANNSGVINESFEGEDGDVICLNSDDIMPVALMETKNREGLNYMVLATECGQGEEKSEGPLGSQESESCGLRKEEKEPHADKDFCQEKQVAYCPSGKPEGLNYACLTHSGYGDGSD
T11 sequence (P54756 25-1037): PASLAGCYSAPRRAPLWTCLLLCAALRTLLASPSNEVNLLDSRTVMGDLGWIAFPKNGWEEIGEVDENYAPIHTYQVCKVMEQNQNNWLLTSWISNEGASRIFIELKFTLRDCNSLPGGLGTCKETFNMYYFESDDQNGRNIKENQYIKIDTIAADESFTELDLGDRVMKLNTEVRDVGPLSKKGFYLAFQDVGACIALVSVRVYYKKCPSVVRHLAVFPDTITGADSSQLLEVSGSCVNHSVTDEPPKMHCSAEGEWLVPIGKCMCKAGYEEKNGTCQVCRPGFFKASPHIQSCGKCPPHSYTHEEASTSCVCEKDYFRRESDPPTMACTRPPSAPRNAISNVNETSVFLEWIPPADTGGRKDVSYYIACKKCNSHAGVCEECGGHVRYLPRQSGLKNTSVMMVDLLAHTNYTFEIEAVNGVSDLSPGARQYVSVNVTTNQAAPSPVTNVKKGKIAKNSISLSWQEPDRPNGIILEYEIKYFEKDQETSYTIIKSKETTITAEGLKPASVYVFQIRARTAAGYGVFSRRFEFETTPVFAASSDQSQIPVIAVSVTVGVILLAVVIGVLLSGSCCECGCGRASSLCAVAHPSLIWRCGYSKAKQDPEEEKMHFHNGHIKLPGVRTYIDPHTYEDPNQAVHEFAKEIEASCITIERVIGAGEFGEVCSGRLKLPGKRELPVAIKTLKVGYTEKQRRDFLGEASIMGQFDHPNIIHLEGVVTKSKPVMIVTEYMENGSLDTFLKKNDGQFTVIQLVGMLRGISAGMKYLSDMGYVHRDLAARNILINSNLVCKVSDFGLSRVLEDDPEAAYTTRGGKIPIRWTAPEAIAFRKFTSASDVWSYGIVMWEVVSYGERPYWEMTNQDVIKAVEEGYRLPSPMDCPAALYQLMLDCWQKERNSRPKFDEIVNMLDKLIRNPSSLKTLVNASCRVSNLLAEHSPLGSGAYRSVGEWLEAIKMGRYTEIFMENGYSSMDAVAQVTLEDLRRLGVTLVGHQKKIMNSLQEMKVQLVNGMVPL
T5 sequence (Q86Y07 whole entry): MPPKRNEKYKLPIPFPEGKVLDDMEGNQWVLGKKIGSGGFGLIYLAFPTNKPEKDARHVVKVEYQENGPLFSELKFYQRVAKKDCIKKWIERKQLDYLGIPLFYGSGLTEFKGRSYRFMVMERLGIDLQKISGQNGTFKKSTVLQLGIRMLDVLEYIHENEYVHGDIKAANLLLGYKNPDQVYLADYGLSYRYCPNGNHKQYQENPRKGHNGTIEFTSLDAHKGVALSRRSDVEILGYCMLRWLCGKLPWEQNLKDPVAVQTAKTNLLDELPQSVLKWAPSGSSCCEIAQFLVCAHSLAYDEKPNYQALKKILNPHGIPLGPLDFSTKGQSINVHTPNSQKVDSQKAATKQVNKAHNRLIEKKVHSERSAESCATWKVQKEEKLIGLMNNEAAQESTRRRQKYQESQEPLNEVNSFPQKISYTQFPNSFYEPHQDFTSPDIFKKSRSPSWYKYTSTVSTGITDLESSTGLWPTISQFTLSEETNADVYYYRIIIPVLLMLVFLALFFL

Work on C=CC(=O)Nc1cc(-c2cc(-c3cc4c([nH]3)CCNC4=O)ccn2)ccc1OC(F)(F)F [compound 11] yielded an inhibition at 0.01 µM ([1]; 10 nM) of -9%, an inhibition at 0.1 µM ([1]; 100 nM) of -14% and an inhibition at 1 µM ([1]; 1000 nM) of -15%. It also gave an inhibition at 0.01 µM ([2]; 10 nM) of -7%, an inhibition at 0.1 µM ([2]; 100 nM) of -5% and an inhibition at 1 µM ([2]; 1000 nM) of -10%. The inhibition at 0.01 µM ([3]; 10 nM) was 1%, the inhibition at 0.1 µM ([3]; 100 nM) was 11% and the inhibition at 1 µM ([3]; 1000 nM) was 46%. The inhibition at 0.01 µM ([4]; 10 nM) was 51%, the inhibition at 0.1 µM ([4]; 100 nM) was 74% and the inhibition at 1 µM ([4]; 1000 nM) was 80%. It also gave an inhibition at 0.01 µM ([5]; 10 nM) of 7%, an inhibition at 0.1 µM ([5]; 100 nM) of 8% and an inhibition at 1 µM ([5]; 1000 nM) of 7%. The inhibition at 0.01 µM ([6]; 10 nM) was -5%, the inhibition at 0.1 µM ([6]; 100 nM) was -3% and the inhibition at 1 µM ([6]; 1000 nM) was -6%. The inhibition at 0.01 µM ([7]; 10 nM) was 6%, the inhibition at 0.1 µM ([7]; 100 nM) was 21% and the inhibition at 1 µM ([7]; 1000 nM) was 62%. For the same compound, the inhibition at 0.01 µM ([8]; 10 nM) was -7%, the inhibition at 0.1 µM ([8]; 100 nM) was 4% and the inhibition at 1 µM ([8]; 1000 nM) was 11%. For the same compound, the inhibition at 0.01 µM ([9]; 10 nM) was 10%, the inhibition at 0.1 µM ([9]; 100 nM) was 33% and the inhibition at 1 µM ([9]; 1000 nM) was 61%. It also gave an inhibition at 0.01 µM ([10]; 10 nM) of -21%, an inhibition at 0.1 µM ([10]; 100 nM) of -9% and an inhibition at 1 µM ([10]; 1000 nM) of -3%. The inhibition at 0.01 µM ([11]; 10 nM) was -1%, the inhibition at 0.1 µM ([11]; 100 nM) was 4% and the inhibition at 1 µM ([11]; 1000 nM) was 1%. The inhibition at 0.01 µM ([12]; 10 nM) was -1%, the inhibition at 0.1 µM ([12]; 100 nM) was -3% and the inhibition at 1 µM ([12]; 1000 nM) was 12%. The inhibition at 0.01 µM ([13]; 10 nM) was 1%, the inhibition at 0.1 µM ([13]; 100 nM) was 1% and the inhibition at 1 µM ([13]; 1000 nM) was 6%.

From publication PMC11233931, “Remodeling tumor‐associated macrophage for anti‐cancer effects by rational design of irreversible inhibition of mitogen‐activated protein kinase‐activated protein kinase 2” (MedComm, 2024)
